{
  "source": "patent US20220280425A1",
  "about": "“FLAVONOIDS AND LINOLEIC ACID USES IN HYPERTENSION” (King Abdulaziz University, priority 2021, published 2022)",
  "key": {"[1]": {"tested_on": "angiotensin model of hypertensive rats", "experiment": "Invasive blood pressure recording in angiotensin II acute hypertension model", "type": "in vivo, male Wistar rats", "conditions": "for anti-hypertensive effect: current study, IV SNEDDS formulation, angiotensin II infused rats", "description": "(§1) Six-week-old male Wistar rats with a weight of (250-275 g) were obtained from Zagazig University. They were kept in clear cages made of polypropylene and with good ventilation (3-4 rats in each cage), under constant environmental conditions of 22±2° C. temperature, 50-60% relative humidity and 12-h day and night cycle. Unlimited rodent pellet food and purified water were provided to the rats. The experimental design and animal handling procedures were as indicated by the guidelines of the Ethical Committee for Animal Handling at Zagazig University.\nThe blood pressure was recorded invasively in real. The rats were subjected to anesthesia with single intraperitoneal injection of 100 mg/kg ketamine and 10 mg/kg xylazine. Animals' body temperature was held at 37° C. by means of a rectal probe and automated heating pads. A micro-tip pressure volume catheter (PV catheter, SPR-901, Millar Instruments, Houston, Tex., USA) was inserted via a small opening into the right carotid artery. This instrument can continuously monitor the arterial pressure. The micro-tip catheter was linked via a Power Lab Data Interface to a computer running the Lab Chart professional software (v8.0, AD Instruments, Bella Vista, Australia) incorporating blood pressure (BP) module. Following a stabilization time of 5 min, readings were continuously recorded. The BP module was employed to monitor the systolic and diastolic blood pressure.\n(§2) After 10 min (stabilization period) of basal recording of invasive blood pressure and ECG, angiotensin II (120 ng/min/kg) was slowly infused through the femoral vein using syringe pump and continued throughout the experiment duration.\n(§3) Invasive blood hemodynamics and ECG were continuously recorded throughout the experiment. Saline (0.3 ml) was injected in time control experiments.\n(§4) Values of the present study presented in form of mean ±SEM. Statistical analysis was carried out using the Prism 5 computer program (Graph Pad, USA). Statistical comparison was done using repeated measures Two way analysis of variance (ANOVA) followed by Bonferroni' post-hoc test of baseline-corrected data and P<0.05 was considered significant."}, "[2]": {"conditions": "previous report; cited from earlier work"}, "[3]": {"tested_on": "angiotensin model of hypertensive rats", "experiment": "Electrocardiogram (ECG) recording in angiotensin II acute hypertension model", "type": "in vivo, male Wistar rats", "conditions": "IV formulation", "description": "as §1\nA Powerlab® system (AD Instruments, Bella Vista, Australia) linked to a computer running the LabChart professional software with the ECG module was employed to record the standard surface ECG according to the methodology outlined in a previous report by our group. The ECG module quantitatively assesses the various elements of the ECG.\nas §2, §3, §4"}, "[4]": {"conditions": "IV formulation, 10 min after doses 24 and 36 μg/kg, vs vehicle group, p<0.05"}, "[5]": {"conditions": "dose 36 μg/kg, vs vehicle group, p<0.05"}},
  "data": [
    {"smiles": "COc1ccc(-c2cc(=O)c3c(O)cc(O)cc3o2)cc1OC", "note": "[Compound 4, luteolin-3′,4′ -dimethyl ether]", "values": [
      {"measurement": "anti-hypertensive effect", "setting": "[1]", "result": "lack of antihypertensive efficacy"},
      {"measurement": "vasodilation activity", "setting": "[2]", "result": "significant vasodilation activity"}
    ]},
    {"smiles": "COc1cc(-c2cc(=O)c3c(O)c(OC)c(OC)cc3o2)cc(OC)c1OC", "note": "[Compound 1, umuhengerin]", "values": [
      {"measurement": "reflex tachycardia", "setting": "[1]; IV SNEDDS containing 10% linoleic acid", "result": "without reflex tachycardia"},
      {"measurement": "dicrotic notch pressure", "setting": "[1]; [4]", "result": "significant reduction"},
      {"measurement": "pulse pressure", "setting": "[1]; [4]", "result": "significant reduction"},
      {"measurement": "non-ejection duration", "setting": "[1]; IV formulation, dose 36 μg/kg, vs vehicle group", "result": "significant increase"},
      {"measurement": "SDP difference (systolic blood pressure-dicrotic notch pressure difference)", "setting": "[1]; IV formulation, doses 12, 24 and 36 μg/kg, vs vehicle group, p<0.05", "result": "significant reduction"},
      {"measurement": "ejection duration", "setting": "[1]; IV formulation, doses 24 and 36 μg/kg, vs vehicle group", "result": "significant decrease"},
      {"measurement": "time to peak", "setting": "[1]; IV formulation, vs vehicle group", "result": "no change"},
      {"measurement": "systolic blood pressure", "setting": "[1]; IV linoleic acid SNEDDS formulation, 12, 24 and 36 μg/kg, 10 min after each dose, p<0.05", "result": "gradual dose dependent reduction"},
      {"measurement": "diastolic blood pressure", "setting": "[1]; IV linoleic acid SNEDDS formulation, significant at 24 and 36 μg/kg vs plain IV formulation, p<0.05", "result": "gradual and reached a plateau with statistical significance"},
      {"measurement": "anti-hypertensive effect", "setting": "[1]", "result": "observed"},
      {"measurement": "heart rate", "setting": "[1]; medicated IV formulation compared with the plain IV formulation", "result": "did not produced any further effect"},
      {"measurement": "JT interval", "setting": "[3]; 12, 24, 36 μg/kg", "result": "no significant effect"},
      {"measurement": "P-wave duration", "setting": "[3]; 12, 24, 36 μg/kg", "result": "did not affect"},
      {"measurement": "PR interval", "setting": "[3]; 12, 24, 36 μg/kg", "result": "did not affect"},
      {"measurement": "QTc interval", "setting": "[3]; 12, 24, 36 μg/kg", "result": "no significant effect"},
      {"measurement": "R wave amplitude", "setting": "[3]; [5]", "result": "significant decrease"},
      {"measurement": "T wave amplitude", "setting": "[3]; [5]", "result": "increase"},
      {"measurement": "vasodilation activity", "setting": "[2]", "result": "significant vasodilation activity"}
    ]}
  ]
}
